In patent publication US10738057B2, “Tertiary alcohols as PI3K-γ inhibitors” (Incyte Corporation, priority 2017, dated 2020) one finds IC50 data, which are given here for 14 molecules.

Where a name gives a salt, the structure may show the parent alone. Read-outs that look alike come from different tables or passages of the source.

Experiment [1] deals with PI3Kδ (p110δ/p85α) Recombinant Human Protein (Homo sapiens (Human), UniProt O00329). Description: PI3Kδ scintillation proximity assay. The experiment is classed as biochemical. To be noted: 20 μM PIP2, 2 μM ATP, 3.4 nM PI3Kδ, 120 min, room temperature; read-out: PI3Kδ IC50. On the procedure: PI3Kδ Scintillation Proximity Assay
PI3Kδ (p110δ/p85α) Recombinant Human Protein, sequence (O00329 whole entry): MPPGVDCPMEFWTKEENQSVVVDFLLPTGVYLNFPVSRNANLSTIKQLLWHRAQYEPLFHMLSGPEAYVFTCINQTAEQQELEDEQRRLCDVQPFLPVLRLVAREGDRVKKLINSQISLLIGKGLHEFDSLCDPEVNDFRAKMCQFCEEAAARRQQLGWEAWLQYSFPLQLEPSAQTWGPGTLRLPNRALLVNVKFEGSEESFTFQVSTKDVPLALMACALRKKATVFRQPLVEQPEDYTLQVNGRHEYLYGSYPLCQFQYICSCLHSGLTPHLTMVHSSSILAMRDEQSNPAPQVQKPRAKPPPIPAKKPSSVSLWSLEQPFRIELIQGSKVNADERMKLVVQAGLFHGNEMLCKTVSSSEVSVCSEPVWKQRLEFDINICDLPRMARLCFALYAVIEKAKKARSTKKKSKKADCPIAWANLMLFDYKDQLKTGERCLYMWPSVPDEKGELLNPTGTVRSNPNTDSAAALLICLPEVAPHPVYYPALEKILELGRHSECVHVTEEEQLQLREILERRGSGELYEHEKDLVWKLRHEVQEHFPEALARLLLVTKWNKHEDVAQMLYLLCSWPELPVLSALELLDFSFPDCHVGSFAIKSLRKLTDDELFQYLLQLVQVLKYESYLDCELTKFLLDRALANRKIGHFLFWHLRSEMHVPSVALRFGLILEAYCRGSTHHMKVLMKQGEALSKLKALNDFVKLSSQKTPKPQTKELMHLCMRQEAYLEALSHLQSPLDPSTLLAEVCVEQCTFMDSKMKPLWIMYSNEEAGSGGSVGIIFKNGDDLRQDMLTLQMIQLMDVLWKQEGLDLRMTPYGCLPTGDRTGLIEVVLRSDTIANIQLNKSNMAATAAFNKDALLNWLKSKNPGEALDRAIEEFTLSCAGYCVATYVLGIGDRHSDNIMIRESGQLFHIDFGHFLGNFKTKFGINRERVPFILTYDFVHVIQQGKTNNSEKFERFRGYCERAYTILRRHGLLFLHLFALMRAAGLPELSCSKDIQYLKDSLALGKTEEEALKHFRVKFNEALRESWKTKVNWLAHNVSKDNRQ
PI3Kδ (p110δ/p85α) Recombinant Human Protein, sequence (P27986 whole entry partner): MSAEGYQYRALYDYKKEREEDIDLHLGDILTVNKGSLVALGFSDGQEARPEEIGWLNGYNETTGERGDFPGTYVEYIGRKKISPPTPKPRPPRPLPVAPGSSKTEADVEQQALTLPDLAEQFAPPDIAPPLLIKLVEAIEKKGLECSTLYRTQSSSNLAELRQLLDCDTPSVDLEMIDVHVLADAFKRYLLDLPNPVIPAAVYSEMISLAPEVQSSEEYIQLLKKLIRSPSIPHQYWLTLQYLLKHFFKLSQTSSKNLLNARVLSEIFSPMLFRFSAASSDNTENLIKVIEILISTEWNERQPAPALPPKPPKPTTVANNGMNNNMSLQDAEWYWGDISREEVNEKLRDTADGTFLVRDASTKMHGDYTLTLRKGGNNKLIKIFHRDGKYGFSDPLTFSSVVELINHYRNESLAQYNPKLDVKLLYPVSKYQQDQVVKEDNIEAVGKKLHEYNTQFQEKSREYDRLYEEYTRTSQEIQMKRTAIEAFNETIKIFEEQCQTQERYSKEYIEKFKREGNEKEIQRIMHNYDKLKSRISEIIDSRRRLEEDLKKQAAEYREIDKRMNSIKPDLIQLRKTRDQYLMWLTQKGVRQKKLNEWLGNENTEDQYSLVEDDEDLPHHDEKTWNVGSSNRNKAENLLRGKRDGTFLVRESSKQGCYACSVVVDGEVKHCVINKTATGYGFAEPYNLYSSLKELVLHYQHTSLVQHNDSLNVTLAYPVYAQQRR
[γ-^33P]ATP (10 mCi/mL) and Wheat Germ Agglutinin (WGA) YSi SPA Scintillation Beads was purchased from PerkinElmer (Waltham, Mass.). […] PI3Kδ (p110δ/p85α) Recombinant Human Protein was purchased from Eurofins (St Charles, Mo.). ATP, MgCl2, DTT, EDTA, MOPS and CHAPS were purchased from SigmaAldrich (St. Louis, Mo.).
The kinase reaction was conducted in polystyrene 384-well Greiner Bio-one white plate from Thermo Fisher Scientific in a final volume of 25 μL. Inhibitors were first diluted serially in DMSO and added to the plate wells before the addition of other reaction components. The final concentration of DMSO in the assay was 2%. The PI3Kδ assay was carried out at room temperature in 20 mM MOPS, pH 6.7, 10 mM MgCl2, 5 mM DTT and CHAPS 0.03%. Reactions were initiated by the addition of ATP, the final reaction mixture consisted of 20 μM PIP2, 2 μM ATP, 0.5 μCi [γ-^33P] […] The final concentration of SPA beads is 1.0 mg/mL. After the plate sealing, plates were shaken overnight at room temperature and centrifuged at 1500 rpm for 10 min, the radioactivity of the product was determined by scintillation counting on Topcount (PerkinElmer). IC50 determination was performed by fitting the curve of percent of the solvent control activity versus the log of the inhibitor concentration using the GraphPad Prism 6.0 software.
Background: Scintillation proximity formats need no separation of bound from free tracer.

Experiment [2] addresses PI3Kγ (p110γ) Recombinant Human Protein (Homo sapiens (Human), UniProt P48736). Description: PI3K-γ scintillation proximity assay. Type of experiment: biochemical. To be noted: 20 μM PIP2, 2 μM ATP, 13 nM PI3Kγ, 120 min, room temperature. An excerpt: Example B. PI3K-γ Scintillation Proximity Assay
[γ-^33P]ATP (10 mCi/mL) and Wheat Germ Agglutinin (WGA) YSi SPA Scintillation Beads was purchased from PerkinElmer (Waltham, Mass.). Lipid kinase substrate, D-myo-Phosphatidylinositol 4,5-bisphosphate (PtdIns(4,5)P2)D (+)-sn-1,2-di-O-octanoylglyceryl, 3-O-phospho linked (PIP2), CAS 204858-53-7, was purchased from Echelon Biosciences (Salt Lake City, Utah). PI3Kγ (p110γ) Recombinant Human Protein was purchased from Life technology (Grand Island, N.Y.). ATP, MgCl2, DTT, EDTA, MOPS and CHAPS were purchased from SigmaAldrich (St. Louis, Mo.).
The kinase reaction was conducted in polystyrene 384-well Greiner Bio-one white plate from Thermo Fisher Scientific in a final volume of 25 μL. Inhibitors were first diluted serially in DMSO and added to the plate wells before the addition of other reaction components. The final concentration of DMSO in the assay was 2%. The PI3Kγ assay was carried out at room temperature in 20 mM MOPS, pH 6.7, 10 mM MgCl2, 5 mM DTT and CHAPS 0.03%. Reactions were initiated by the addition of ATP, the final reaction mixture consisted of 20 μM PIP2, 2 μM ATP, 0.5 μCi [γ-^33P] ATP, 13 nM PI3Kγ. Reactions were incubated for 120 min and terminated by the addition of 40 μL SPA beads suspended in quench buffer: 163 mM potassium phosphate pH 7.8, 20% glycerol, 25 mM EDTA. The final concentration of SPA beads is 1.0 mg/mL. After the plate sealing, plates were shaken overnight at room temperature and centrifuged at 1500 rpm for 10 min, the radioactivity of the product was determined by scintillation counting on Topcount (Perkin-Elmer). IC50 determination was performed by fitting the curve of percent of the solvent control activity versus the log of the inhibitor concentration using the GraphPad Prism 6.0 software.

The subject of experiment [3] is Phosphorylated Ribosomal Protein S6 (RPS6) in THP-1 cells. Description: THP-1 RPS6 ELISA assay. The experiment is classed as cell-based, Human. Here is the method: Example A. THP-1 RPS6 ELISA Assay
To measure the Phosphorylated Ribosomal Protein S6 (RPS6) in cell lysates, THP-1 cells (Human Acute Monocytic Leukemia) are purchased from ATCC (Manassas, Va.) and maintained in RPMI with 10% FBS (Gibco/Life Technologies, Carlsbad, Calif.). For the assay, THP-1 cells are serum starved overnight in RPMI, then plated in RPMI (2×10^5 cells/well in 90 μL) into 96-well flat-bottom tissue culture treated plates (Corning, Corning, N.Y.), in the presence or absence of a concentration range of test compounds. Covered plates are incubated for 2 hours at 37° C., 5% CO2 then treated with or without 10 nM MCP-1 (MYBioSource, San Diego, Calif.) for 15 minutes at 37° C., 5% CO2. Plates are centrifuged at 1600 RPM and supernatants are removed. Cells are lysed in Lysis Buffer (Cell Signaling, Danvers, Mass.) with Protease Inhibitor (Calbiochem/EMD, Germany), PMSF (Sigma, St Louis Mo.), HALTS (Thermo Fisher, Rockford, Ill.) for 30 min on wet ice. Cell lysates are frozen at −80° C. before testing. The lysates are tested in the Human/Mouse/Rat Phospho-RPS6 ELISA (R&D Systems, Inc. Minn, Minn.). The plate is measured using a microplate reader (SpectraMax M5—Molecular Devices, LLC Sunnyvale, Calif.) set to 450 nm with a wavelength correction of 540. IC50 determination is performed by fitting the curve of inhibitor percent inhibition versus the log of the inhibitor concentration using the GraphPad Prism 5.0 software.
In general terms: In an ELISA, binding on a coated surface is turned into a signal by an enzyme label.

[4] abbreviates: THP-1 cells, serum starved, 2 h compound, 10 nM MCP-1 for 15 min, phospho-RPS6 ELISA, read-out: PI3Kγ_THP1_RPS6_ELISA IC50.
[5] abbreviates: Homo sapiens, THP-1, THP-1 cells, serum starved, 2 h compound, 10 nM MCP-1 for 15 min, phospho-RPS6 ELISA, read-out: PI3Kγ_THP1_RPS6_ELISA IC50.
[6] abbreviates: Homo sapiens, THP-1, read-out: PI3Kγ_THP1_RPS6_ELISA IC50 (nM).

PI3Kγ (p110γ) Recombinant Human Protein, sequence (P48736 whole entry): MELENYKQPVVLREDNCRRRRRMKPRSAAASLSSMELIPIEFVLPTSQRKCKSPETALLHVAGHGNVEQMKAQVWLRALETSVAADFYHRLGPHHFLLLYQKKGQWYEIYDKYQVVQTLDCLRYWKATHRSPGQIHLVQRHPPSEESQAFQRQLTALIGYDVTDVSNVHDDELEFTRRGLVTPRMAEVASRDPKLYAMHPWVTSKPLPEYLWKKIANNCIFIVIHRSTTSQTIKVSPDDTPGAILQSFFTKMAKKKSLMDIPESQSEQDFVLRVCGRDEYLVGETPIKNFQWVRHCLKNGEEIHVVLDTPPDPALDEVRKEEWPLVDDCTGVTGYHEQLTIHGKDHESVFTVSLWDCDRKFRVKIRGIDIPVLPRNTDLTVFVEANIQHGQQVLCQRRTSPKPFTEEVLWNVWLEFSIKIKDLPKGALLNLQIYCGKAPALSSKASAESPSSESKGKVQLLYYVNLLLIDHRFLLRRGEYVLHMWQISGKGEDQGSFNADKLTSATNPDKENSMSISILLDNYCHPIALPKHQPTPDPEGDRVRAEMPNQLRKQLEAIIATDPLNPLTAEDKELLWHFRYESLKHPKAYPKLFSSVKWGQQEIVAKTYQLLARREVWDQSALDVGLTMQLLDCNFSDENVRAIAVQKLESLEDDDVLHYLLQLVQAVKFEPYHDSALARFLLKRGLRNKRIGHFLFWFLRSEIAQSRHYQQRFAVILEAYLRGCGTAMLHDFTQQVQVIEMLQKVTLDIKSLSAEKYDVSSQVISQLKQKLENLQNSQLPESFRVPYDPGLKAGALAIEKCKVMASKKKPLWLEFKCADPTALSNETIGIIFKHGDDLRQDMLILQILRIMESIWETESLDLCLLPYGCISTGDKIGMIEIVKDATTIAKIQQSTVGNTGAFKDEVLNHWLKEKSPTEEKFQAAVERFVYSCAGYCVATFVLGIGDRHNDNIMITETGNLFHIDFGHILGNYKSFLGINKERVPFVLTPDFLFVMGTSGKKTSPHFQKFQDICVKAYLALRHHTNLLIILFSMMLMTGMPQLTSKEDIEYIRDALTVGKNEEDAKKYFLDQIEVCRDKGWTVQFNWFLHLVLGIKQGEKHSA

On to “2-(3-(8-Amino-6-(3-methyl-1H-pyrazol-4-yl)imidazo[1,2-a]pyrazin-3-yl)-4-methylphenyl)-1,1-difluoropropan-2-ol, 1.2TFA [Example 47]”, for which the IC50 in experiment [1], in experiment [2] and in experiment [3] (setting [4]) was less than 100 nM in each case.
With `Cc1ccc(C(C)(O)CF)cc1-c1cnc2c(N)nc(C(F)(F)F)cn12` (racemic) [Example 24, 2-(3-(8-Amino-6-(trifluoromethyl)imidazo[1,2-a]pyrazin-3-yl)-4-methylphenyl)-1-fluoropropan-2-ol trifluoroacetate salt], the results for the IC50 in experiment [1], in experiment [2] and in experiment [3] (setting [5]) were 500 to 2000 nM, less than 100 nM and 500 to 1000 nM, respectively.
With `Cc1ccc(C(O)(CO)C(F)(F)F)cc1-c1cnc2c(N)nc(-c3cnn(C)c3)cn12` (racemic) [Example 69, 2-(3-(8-Amino-6-(1-methyl-1H-pyrazol-4-yl)imidazo[1,2-a]pyrazin-3-yl)-4-methylphenyl)-3,3,3-trifluoropropane-1,2-diol trifluoroacetate salt], the IC50 in experiment [3] (setting [6]) was less than 100 nM.
Turning to `Cc1ncc(-c2cn3c(-c4cc(C(O)(CO)C(F)(F)F)ccc4C)cnc3c(N)n2)s1` (racemic) [Example 70, 2-(3-(8-Amino-6-(2-methylthiazol-5-yl)imidazo[1,2-a]pyrazin-3-yl)-4-methylphenyl)-3,3,3-trifluoropropane-1,2-diol trifluoroacetate salt], the IC50 in experiment [3] (setting [6]) is less than 100 nM.
`Cc1ccc(C(O)(CO)C(F)(F)F)cc1-c1cnc2c(N)nc(-c3cnco3)cn12` (racemic) [Example 71, 2-(3-(8-Amino-6-(oxazol-5-yl)imidazo[1,2-a]pyrazin-3-yl)-4-methylphenyl)-3,3,3-trifluoropropane-1,2-diol trifluoroacetate salt]: the IC50 in experiment [3] (setting [6]) was less than 100 nM.
Turning to `Cc1ccc(C(C)(O)C(F)(F)F)cc1-c1cnc2c(N)nc(C(F)(F)F)cn12` (single isomer, unassigned) [Example 5, 2-(3-(8-Amino-6-(trifluoromethyl)imidazo[1,2-a]pyrazin-3-yl)-4-methylphenyl)-1,1,1-trifluoropropan-2-ol], the figures for the IC50 in experiment [1], in experiment [2] and in experiment [3] (setting [4]) were 100 to 500 nM, less than 100 nM and 500 to 1000 nM, respectively.
As to `Cc1ccc(C(C)(O)C(F)(F)F)cc1-c1cnc2c(N)nc(C(F)(F)F)cn12` (single isomer, unassigned) [Example 6, 2-(3-(8-Amino-6-(trifluoromethyl)imidazo[1,2-a]pyrazin-3-yl)-4-methylphenyl)-1,1,1-trifluoropropan-2-ol], the IC50 is 100 to 500 nM in experiment [1], less than 100 nM in experiment [2] and 100 to 500 nM in experiment [3] (setting [4]).
Regarding `Cc1ccc(C(C)(O)C(F)(F)F)cc1-c1cnc2c(N)nc(-c3ccnc(CO)c3)cn12` (single isomer, unassigned) [Example 11, 2-(3-(8-amino-6-(2-(hydroxymethyl)pyridin-4-yl)imidazo[1,2-a]pyrazin-3-yl)-4-methylphenyl)-1,1,1-trifluoropropan-2-ol], the IC50 in experiment [1] is less than 100 nM; in experiment [2], less than 100 nM; in experiment [3] (setting [5]), 100 to 500 nM.
`Cc1ccc(C(C)(O)C(F)(F)F)cc1-c1cnc2c(N)nc(-c3ccnc(CO)c3)cn12` (single isomer, unassigned) [Example 12, 2-(3-(8-amino-6-(2-(hydroxymethyl)pyridin-4-yl)imidazo[1,2-a]pyrazin-3-yl)-4-methylphenyl)-1,1,1-trifluoropropan-2-ol]: the IC50 in experiment [1], in experiment [2] and in experiment [3] (setting [4]) was less than 100 nM each time.
Take `CNCCC(O)(c1ccc(C)c(-c2cnc3c(N)nc(C(F)(F)F)cn23)c1)C(F)(F)F` (single isomer, unassigned) [Example 15, 2-(3-(8-Amino-6-(trifluoromethyl)imidazo[1,2-a]pyrazin-3-yl)-4-methylphenyl)-1,1,1-trifluoro-4-(methylamino)butan-2-ol]: the IC50 is 100 to 500 nM in experiment [1], less than 100 nM in experiment [2] and 100 to 500 nM in experiment [3] (setting [4]).
`CNCCC(O)(c1ccc(C)c(-c2cnc3c(N)nc(C(F)(F)F)cn23)c1)C(F)(F)F` (single isomer, unassigned) [Example 16, 2-(3-(8-Amino-6-(trifluoromethyl)imidazo[1,2-a]pyrazin-3-yl)-4-methylphenyl)-1,1,1-trifluoro-4-(methylamino)butan-2-ol]: the IC50 in experiment [1] is 100 to 500 nM; in experiment [2], less than 100 nM; in experiment [3] (setting [4]), 500 to 1000 nM.
In the case of `[2H]C([2H])([2H])n1nccc1-c1cn2c(-c3cc(C(C)(O)C(F)F)ccc3C)cnc2c(N)n1` (single isomer, unassigned) [Example 25, 2-(3-(8-Amino-6-(1-(methyl-d3)-1H-pyrazol-5-yl)imidazo[1,2-a]pyrazin-3-yl)-4-methylphenyl)-1,1-difluoropropan-2-ol trifluoroacetate salt], the results for the IC50 in experiment [1], in experiment [2] and in experiment [3] (setting [5]) were 100 to 500 nM, less than 100 nM and 100 to 500 nM, respectively.
For the molecule `Cc1ccc(C(O)(C(N)=O)C(F)(F)F)cc1-c1cnc2c(N)nc(C(C)(C)O)cn12` (single isomer, unassigned) [Example 255, 2-(3-(8-Amino-6-(2-hydroxypropan-2-yl)imidazo[1,2-a]pyrazin-3-yl)-4-methylphenyl)-3,3,3-trifluoro-2-hydroxypropanamide trifluoroacetate salt], the IC50 in experiment [3] (setting [5]) is less than 100 nM.
On the same count and under the same terms, under `Cc1ccc(C(O)(C(N)=O)C(F)(F)F)cc1-c1cnc2c(N)nc(C(=O)NC34CCC(O)(CC3)C4)cn12` (single isomer, unassigned) [Example 260, 8-Amino-3-(5-(3-amino-1,1,1-trifluoro-2-hydroxy-3-oxopropan-2-yl)-2-methylphenyl)-N-(4-hydroxybicyclo[2.2.1]heptan-1-yl)imidazo[1,2-a]pyrazine-6-carboxamide trifluoroacetate salt] stands 500 to 1000 nM.

As a reminder, the IC50 is the concentration that gives 50% inhibition.
